Measurements from ChEMBL document CHEMBL3885861, “Open TG-GATES”.

Organism: Rattus norvegicus
Experiment: Open TG-GATES - Regimen: Daily Repeat
Type: toxicity, organism-based, Sprague-Dawley
Design: regimen Daily Repeat, gender Male, age 6 weeks
Conditions: in vivo, po, route gavage; for APTT / Bas / Eos / Fbg / Ht / MCH / MCHC / MCV / Mono / Neu / PT / RBC / Ret: tissue Blood; for KIDNEY_L / KIDNEY_R / KIDNEY_TOTAL: tissue Kidney; for ALP / ALT / AST / BUN / CRE / Ca / Cl / DBIL / GLC / IP / K / LDH / Na / PL / RALB / TBIL / TC / TG / TP / gamma-GTP: tissue Plasma
[1] = 0 mg/kg, 72 h, dose level Control, time 3 day
[2] = 0 mg/kg, […], dose level Control, time 7 day
[3] = 0 mg/kg, […], dose level Control, time 14 day
[4] = 0 mg/kg, […], dose level Control, time 28 day
[5] = 60 mg/kg, 72 h, dose level Low, time 3 day
[6] = 60 mg/kg, […], dose level Low, time 7 day
[7] = 60 mg/kg, […], dose level Low, time 14 day
[8] = 60 mg/kg, […], dose level Low, time 28 day

Structure (SMILES): CC(=O)Nc1nnc(S(N)(=O)=O)s1 [ACETAZOLAMIDE]
- TERMINAL_BW [1]: 229 g
- APTT [1]: 21.2 s
- Bas [1]: 0%
- Eos [1]: 1%
- Fbg [1]: 302.2 mg/dL
- Ht [1]: 39.4%
- MCH [1]: 21.3 pg
- MCHC [1]: 34%
- MCV [1]: 62.8 fL
- Mono [1]: 3%
- Neu [1]: 16%
- PT [1]: 17 s
- RBC [1]: 628.2 x10_4/ul
- Ret [1]: 6.9%
- KIDNEY_L [1]: 1 g
- KIDNEY_R [1]: 1 g
- KIDNEY_TOTAL [1]: 2 g
- ALP [1]: 1759.2 IU/L
- ALT [1]: 45.6 IU/L
- AST [1]: 81.2 IU/L
- BUN [1]: 17.8 mg/dL
- CRE [1]: 0.1 mg/dL
- Ca [1]: 10.8 mg/dL
- Cl [1]: 106.6 meq/L
- DBIL [1]: 0 mg/dL
- GLC [1]: 193.6 mg/dL
- IP [1]: 7.5 mg/dL
- K [1]: 4.3 meq/L
- LDH [1]: 208.8 IU/L
- Na [1]: 142 meq/L
- PL [1]: 135 mg/dL
- RALB [1]: 3.1 g/dL
- TBIL [1]: 0.008 mg/dL
- TC [1]: 71.2 mg/dL
- TG [1]: 86.2 mg/dL
- TP [1]: 5.5 g/dL
- gamma-GTP [1]: 1.8 IU/L
- TERMINAL_BW [2]: 260.7 g
- TERMINAL_BW [3]: 306.6 g
- TERMINAL_BW [4]: 366.7 g
- APTT [2]: 21.8 s
- Bas [2]: 0%
- Eos [2]: 0.8%
- Ht [2]: 39.7%
- MCH [2]: 21.9 pg
- MCHC [2]: 35.8%
- MCV [2]: 61.1 fL
- Mono [2]: 2.4%
- Neu [2]: 11.8%
- PT [2]: 16.1 s
- RBC [2]: 650.4 x10_4/ul
- Ret [2]: 5.7%
- APTT [3]: 23.3 s
- Bas [3]: 0%
- Eos [3]: 0.8%
- Fbg [3]: 297.2 mg/dL
- Ht [3]: 40%
- MCH [3]: 20.5 pg
- MCHC [3]: 35.3%
- MCV [3]: 58.2 fL
- Mono [3]: 2.2%
- Neu [3]: 14%
- PT [3]: 16.5 s
- RBC [3]: 688.2 x10_4/ul
- Ret [3]: 5.1%
- APTT [4]: 25.9 s
- Bas [4]: 0%
- Eos [4]: 0.6%
- Fbg [4]: 316 mg/dL
- Ht [4]: 44%
- MCH [4]: 19 pg
- MCHC [4]: 34.3%
- MCV [4]: 55.6 fL
- Mono [4]: 2%
- Neu [4]: 12.4%
- RBC [4]: 791.4 x10_4/ul
- Ret [4]: 2.8%
- KIDNEY_L [2]: 1 g
- KIDNEY_R [2]: 1.1 g
- KIDNEY_TOTAL [2]: 2.1 g
- KIDNEY_L [3]: 1.2 g
- KIDNEY_R [3]: 1.2 g
- KIDNEY_TOTAL [3]: 2.4 g
- KIDNEY_L [4]: 1.3 g
- KIDNEY_R [4]: 1.3 g
- KIDNEY_TOTAL [4]: 2.6 g
- ALP [2]: 1905.2 IU/L
- ALT [2]: 37.6 IU/L
- AST [2]: 72.6 IU/L
- BUN [2]: 22 mg/dL
- CRE [2]: 0.2 mg/dL
- Ca [2]: 10.8 mg/dL
- Cl [2]: 106.4 meq/L
- DBIL [2]: 0 mg/dL
- GLC [2]: 203 mg/dL
- IP [2]: 6.9 mg/dL
- K [2]: 4.7 meq/L
- LDH [2]: 193.6 IU/L
- Na [2]: 142.2 meq/L
- PL [2]: 132.6 mg/dL
- RALB [2]: 3.1 g/dL
- TBIL [2]: 0.002 mg/dL
- TC [2]: 63.2 mg/dL
- TG [2]: 101.8 mg/dL
- TP [2]: 5.3 g/dL
- gamma-GTP [2]: 1.6 IU/L
- ALP [3]: 1570.4 IU/L
- AST [3]: 67.2 IU/L
- BUN [3]: 19.8 mg/dL
- CRE [3]: 0.2 mg/dL
- Ca [3]: 10.6 mg/dL
- DBIL [3]: 0 mg/dL
- GLC [3]: 197.6 mg/dL
- IP [3]: 7.4 mg/dL
- K [3]: 4.3 meq/L
- LDH [3]: 171.4 IU/L
- Na [3]: 143.6 meq/L
- PL [3]: 142.4 mg/dL
- RALB [3]: 3.1 g/dL
- TBIL [3]: 0.002 mg/dL
- TC [3]: 67 mg/dL
- TP [3]: 5.7 g/dL
- gamma-GTP [3]: 2.4 IU/L
- ALP [4]: 1140.2 IU/L
- ALT [4]: 40.6 IU/L
- AST [4]: 63.8 IU/L
- BUN [4]: 18.8 mg/dL
- CRE [4]: 0.2 mg/dL
- Cl [4]: 105.4 meq/L
- DBIL [4]: 0 mg/dL
- GLC [4]: 207.8 mg/dL
- IP [4]: 6.2 mg/dL
- K [4]: 4.1 meq/L
- LDH [4]: 138.8 IU/L
- Na [4]: 142.6 meq/L
- RALB [4]: 3.3 g/dL
- TBIL [4]: 0.004 mg/dL
- TC [4]: 69.8 mg/dL
- TG [4]: 178.4 mg/dL
- TP [4]: 6.1 g/dL
- gamma-GTP [4]: 2.2 IU/L
- TERMINAL_BW [5]: 226.3 g
- APTT [5]: 20.3 s
- Bas [5]: 0%
- Eos [5]: 1%
- Fbg [5]: 272.8 mg/dL
- Ht [5]: 39.2%
- MCHC [5]: 34%
- MCV [5]: 60.6 fL
- Mono [5]: 2.6%
- Neu [5]: 15.4%
- PT [5]: 16.8 s
- RBC [5]: 648.4 x10_4/ul
- Ret [5]: 5.3%
- KIDNEY_L [5]: 1 g
- KIDNEY_R [5]: 1 g
- KIDNEY_TOTAL [5]: 2 g
- ALP [5]: 1702 IU/L
- ALT [5]: 42.2 IU/L
- AST [5]: 67.4 IU/L
- BUN [5]: 17 mg/dL
- CRE [5]: 0.2 mg/dL
- Ca [5]: 10.6 mg/dL
- Cl [5]: 106.4 meq/L
- DBIL [5]: 0 mg/dL
- GLC [5]: 185.4 mg/dL
- IP [5]: 7.3 mg/dL
- K [5]: 4.1 meq/L
- LDH [5]: 188.6 IU/L
- Na [5]: 142.8 meq/L
- RALB [5]: 2.9 g/dL
- TBIL [5]: 0 mg/dL
- TC [5]: 73.6 mg/dL
- TG [5]: 137.8 mg/dL
- TP [5]: 5.2 g/dL
- gamma-GTP [5]: 1.4 IU/L
- TERMINAL_BW [6]: 265.9 g
- TERMINAL_BW [7]: 293.1 g
- TERMINAL_BW [8]: 367.2 g
- APTT [6]: 20.2 s
- Bas [6]: 0%
- Eos [6]: 0.8%
- Fbg [6]: 299.4 mg/dL
- Ht [6]: 37%
- MCH [6]: 21.7 pg
- MCV [6]: 61 fL
- Mono [6]: 2.4%
- Neu [6]: 13.4%
- PT [6]: 16.1 s
- RBC [6]: 606.4 x10_4/ul
- Ret [6]: 6.9%
- APTT [7]: 22.7 s
- Bas [7]: 0%
- Eos [7]: 0.8%
- Fbg [7]: 302.4 mg/dL
- MCHC [7]: 35.9%
- MCV [7]: 57.5 fL
- Mono [7]: 2.2%
- Neu [7]: 12.8%
- RBC [7]: 687.6 x10_4/ul
- Ret [7]: 4.3%
- APTT [8]: 23.2 s
- Bas [8]: 0%
- Eos [8]: 1%
- Fbg [8]: 311 mg/dL
- Ht [8]: 42.3%
- MCH [8]: 19.2 pg
- MCHC [8]: 34.3%
- MCV [8]: 56 fL
- Mono [8]: 1.6%
- Neu [8]: 12%
- RBC [8]: 755.4 x10_4/ul
- Ret [8]: 2.9%
- KIDNEY_L [6]: 1.2 g
- KIDNEY_R [6]: 1.3 g
- KIDNEY_TOTAL [6]: 2.5 g
- KIDNEY_L [7]: 1.2 g
- KIDNEY_R [7]: 1.2 g
- KIDNEY_TOTAL [7]: 2.4 g
- KIDNEY_L [8]: 1.4 g
- KIDNEY_R [8]: 1.5 g
- KIDNEY_TOTAL [8]: 2.9 g
- ALP [6]: 1603.6 IU/L
- ALT [6]: 40.6 IU/L
- AST [6]: 69 IU/L
- BUN [6]: 19.6 mg/dL
- CRE [6]: 0.1 mg/dL
- Ca [6]: 10.6 mg/dL
- Cl [6]: 107.4 meq/L
- DBIL [6]: 0 mg/dL
- GLC [6]: 192.2 mg/dL
- IP [6]: 7.2 mg/dL
- K [6]: 4.2 meq/L
- LDH [6]: 140.4 IU/L
- Na [6]: 143.8 meq/L
- PL [6]: 139.6 mg/dL
- RALB [6]: 3 g/dL
- TBIL [6]: 0.002 mg/dL
- TC [6]: 71.8 mg/dL
- TG [6]: 127 mg/dL
- TP [6]: 5.2 g/dL
- gamma-GTP [6]: 1.8 IU/L
- ALP [7]: 1453.4 IU/L
- ALT [7]: 41.2 IU/L
- AST [7]: 65 IU/L
- BUN [7]: 17 mg/dL
- CRE [7]: 0.2 mg/dL
- Ca [7]: 10.5 mg/dL
- Cl [7]: 105.8 meq/L
- DBIL [7]: 0 mg/dL
- GLC [7]: 185.2 mg/dL
- IP [7]: 6.7 mg/dL
- K [7]: 3.8 meq/L
- LDH [7]: 123.6 IU/L
- Na [7]: 144 meq/L
- PL [7]: 140.8 mg/dL
- RALB [7]: 3 g/dL
- TBIL [7]: 0.002 mg/dL
- TC [7]: 65.8 mg/dL
- TG [7]: 152.6 mg/dL
- TP [7]: 5.5 g/dL
- gamma-GTP [7]: 2 IU/L
- ALP [8]: 1253 IU/L
- ALT [8]: 41 IU/L
- AST [8]: 63 IU/L
- BUN [8]: 19 mg/dL
- CRE [8]: 0.2 mg/dL
- Ca [8]: 10.5 mg/dL
- Cl [8]: 106.8 meq/L
- DBIL [8]: 0 mg/dL
- GLC [8]: 184.2 mg/dL
- IP [8]: 6.2 mg/dL
- K [8]: 4 meq/L
- LDH [8]: 129 IU/L
- Na [8]: 143 meq/L
- PL [8]: 142.8 mg/dL
- RALB [8]: 3.1 g/dL
- TBIL [8]: 0.002 mg/dL
- TC [8]: 70.8 mg/dL
- TG [8]: 159.2 mg/dL
- TP [8]: 5.9 g/dL
- gamma-GTP [8]: 2.2 IU/L
- TERMINAL_BW (200 mg/kg, 72 h, dose level Middle, time 3 day): 215.5 g
